Source: US10881639B2, “Use of composition of multivitamin in preparing drug for stimulating gastrointestinal system motility” (Zensun (Shanghai) Science & Technology, Co., Ltd., priority 2015, dated 2021)
Counter-ions that a name gives are not always drawn.

System: mice with 2.5 mg/kg loperamide-induced constipation
Assay: Small intestinal propulsive rate of a charcoal solution in mice with 2.5 mg/kg loperamide-induced constipation, with positive controls (Example 2)
Format: in vivo, mouse
Settings: for Effect on the small intestinal propulsive rate (%) vs model group, in words: positive drugs at 1× dose, loperamide-induced constipation mouse model; for Propulsive distance of the charcoal solution / Small intestinal propulsive rate: positive drugs intragastric: itopride 30.75, naloxone 5.0, domperidone 6.16, mosapride citrate 3.075 mg/kg, loperamide 2.5 mg/kg s.c., 20 min after charcoal
Source text: 1.2 Experimental Animals Species: mouse Strains: C57BL/6 Gender and quantity: Female, 65 Animal week-age: 8-9 weeks Weight range: 19.0-25.0 g Animal sources: Shanghai Lingchang Biotechnology Co. LTD Animal certificate number: 2013001804393 2. Experimental Design and Methods 2.1 Test Grouping:
Experimental animals were randomly divided into 8 groups (8 animals per group) by the random number table method.
2.2 Reagent Preparation 1) 0.5% CMC—Na solution: 2.0 g of CMC—Na powder was weighed and 300 ml ultra-pure water was slowly added thereto; the mixture was subjected to magnetic stirring until it was completely dissolved to reach a constant volume of 400 ml, thereby preparing a clear solution of 0.5%, which was stored at 4° C. for later use. 2) 1% Tween-80 in saline: 40 ml saline was accurately measured using a measuring cylinder and added into a 50 ml centrifuge tube; 400 μl Tween-80 was measured using a pipette and added into the centrifuge tube; and the mixture was subjected to vortex oscillation to be homogeneous and was then placed at room temperature for later use. 3) 5% charcoal solution: 100 g of Arabic gum was accurately weighed and 800 ml water was added thereto; and the solution was boiled until it was transparent. 50 g of activated carbon powder was weighed and added into the above solution and the mixture was boiled for three times. After the solution was cool, water was added to reach a constant volume of 1000 ml. 4) Group for the composition comprising B vitamins (9 components) and C vitamins (5×): one tablet of the composition comprising B vitamins (9 components) and C vitamins was taken; after its grinding, 19.5 ml of 0.5% CMC—Na was added; and the mixture was subjected to oscillation to become homogeneous, thereby forming a stable suspension. It was used immediately after its preparation. 5) Group for the composition comprising B vitamins (9 components) and C vitamins (1×): 2 ml of the suspension of the composition comprising B vitamins (9 components) and C vitamins (5×) was taken and 8 ml of 0.5% CMC—Na was added; and the mixture was subjected to oscillation to become homogeneous, thereby forming a stable suspension. It was used immediately after its preparation. 6) Domperidone: 32.52 ml of 0.5% CMC—Na was added after grinding of one domperidone tablet; and the mixture was subjected to oscillation to become homogeneous, thereby forming a stable suspension. It was used immediately after its preparation. 7) Mosapride citrate: 32.52 ml of 0.5% CMC—Na was added after grinding of one mosapride citrate tablet; and the mixture was subjected to oscillation to become homogeneous, thereby forming a stable suspension. It was used immediately after its preparation. […] It was used immediately after its preparation. […] It was used immediately after its preparation. 10) Loperamide: 5.0 mg of loperamide was accurately weighed and 20 ml of a saline solution with 1.0% Tween 80 was added thereto; after being subjected to oscillation to become homogeneous, the mixture was subjected to ultrasound for at least 5 minutes. This reagent was used immediately after it was prepared. 2.3 Test Methods
After 30 minutes of administration, the control group was injected subcutaneously with the saline solution containing 1.0% Tween 80 while the other groups were injected subcutaneously with a loperamide solution in an injection volume of 10 ml/kg. After a subcutaneous injection for 30 minutes, an intragastric administration of the charcoal solution was performed at an administration volume of 10 ml/kg^[1,2,3].
2.4 Observation Index Small intestinal propulsive rate of the charcoal solution (%)=(the propulsive distance of the charcoal solution/total length of the small intestine)×100
Twenty minutes after an intragastric administration of the charcoal solution, the animal was sacrificed by cervical dislocation and its abdominal cavity was immediately opened to separate the mesentery.

O=c1[nH]c2ccccc2n1CCCN1CCC(n2c(=O)[nH]c3cc(Cl)ccc32)CC1 [Domperidone]
Effect on the small intestinal propulsive rate (%) vs model group, in words: do not have the improvement effect
Propulsive distance of the charcoal solution: 4.0 ± 1.1 cm
Small intestinal propulsive rate: 20.1 ± 5.7%
Small intestinal propulsive rate (listed as domperidone): 19.5±3.8%

COc1ccc(C(=O)NCc2ccc(OCCN(C)C)cc2)cc1OC [Itopride hydrochloride]
Effect on the small intestinal propulsive rate (%) vs model group, in words: do not have the improvement effect
Propulsive distance of the charcoal solution: 5.0 ± 1.2 cm
Small intestinal propulsive rate (hydrochloride): 26.4 ± 7.0%
Small intestinal propulsive rate (listed as itopride hydrochloride, hydrochloride): 26.4±7.0%

CCOc1cc(N)c(Cl)cc1C(=O)NCC1CN(Cc2ccc(F)cc2)CCO1 (stereo not drawn) [Mosapride Citrate, Mosapride citrate]
Effect on the small intestinal propulsive rate (%) vs model group, in words: do not have the improvement effect
Propulsive distance of the charcoal solution: 11.7 ± 2.1 cm
Small intestinal propulsive rate: 60.7 ± 12.1 %
Small intestinal propulsive rate (listed as mosapride citrate): 20.1±5.7%

C=CCN1CC[C@]23c4c5ccc(O)c4O[C@H]2C(=O)CC[C@@]3(O)[C@H]1C5 [Naloxone]
Effect on the small intestinal propulsive rate (%) vs model group, in words: also has the improvement effect
Propulsive distance of the charcoal solution: 3.9 ± 0.8 cm
Small intestinal propulsive rate: 19.5 ± 3.8%
